According to US6441027B1, “Method of regulating the female reproductive system through angiogenesis inhibitors” (Children's Medical Center Corporation, priority 1996, dated 2002):
Entries after “also recorded” stand apart in the source; their conditions may differ. Read-outs that look alike come from different tables or passages of the source.

Assays:
angiogenesis = conditions: cited from earlier work
[1] = tested on: embryo and yolk sac blood vessels; experiment: Whole mount anti-CD31/PECAM staining of embryo and yolk sac on E9; format: in vivo, mouse; conditions: 30 mg/kg on E7, studied E9
Procedure: Mice were treated with 30 mg/kg AGM-1470 following the same protocol in Example 2. The control and AGM-1470 treated embryos were studied on E9 by whole mount immunohistochemistry for CD-31/PECAM to stain blood vessels. The fetus and the yolk sack in the mice given AGM-1470 on E1 were excluded due to necrosis by E9. […] Loss of vascular development in the embryo could be due to either a direct effect of AGM-1470 on the embryonic vasculature or to a secondary effect caused by failure of normal placental and yolk sac development.
The whole-mount immunohistochemistry with monoclonal antibody to mouse PECAM (CD31) was performed essentially as described by Schlaeger^29 Embryos were dissected from the uterus and fixed in 4% paraformaldehyde, PBS at 4° Celsius overnight. The fixed embryos were subsequently rinsed in PBS at room temperature and dehydrated in a methanol series. The dehydrated embryos were bleached in 5% hydrogen peroxide in methanol for 4 to 5 hours at room temperature and then rinsed twice in methanol. Embryos were stored at −20° Celsius until used. The bleached embryos were rehydrated and blocked with PBSMT (3% instant skim milk, 0.1% Triton X-100, PBS) for one hour twice at room temperature. The embryos were then incubated with a 1:10 diluted hybridoma supernatant in PBSMT at 4° Celsius overnight. On the next day, the embryos were washed with PBSMT at 4° Celsius five times (1 hour each) and then incubated with a biotinylated secondary anti-rat IgG, mouse adsorbed (Vector Laboratories, Burlingame, Calif.) in PBSMT at 4° Celsius overnight. On the third day, the embryos were rinsed in PBSMT at 4° Celsius five times (1 hour each) and then incubated in avidin and horse radish conjugated biotin in PBSMT (1:100 dilution) (Vectastatin Elite Standard ABC Kit, Vector Laboratories) overnight at 4° Celsius. On the fourth day embryos were rinsed in PBSMT at 4° Celsius five time (1 hour each) and finally in PBT (0.2% BSA, 0.1% Triton-X100, PBS) for 20 minutes at room temperature. […]

[2] = tested on: VEGF induced neovascularization; experiment: Mouse corneal micropocket model, VEGF pellet; format: in vivo; conditions: mouse cornea, n=10/group, p<0.001
Procedure: (§1) To confirm that angiogenesis was being inhibited, AGM-1470 was tested in vivo. A mouse corneal micropocket model was used which was recently developed to model tumor angiogenesis. Pellets of bFGF or VEGF were implanted in the mouse cornea resulting in aggressive neovascularization. AGM-1470 inhibited the amount of bFGF or VEGF induced neovascularization by 47% or 62% respectively (n=10/group p<0.001).

plugged mice = experiment: Reversibility: remating after fetal resorption; format: in vivo, mouse; conditions: 30 mg/kg on E1 (n=3) or E7 (n=3), remated six weeks after E18 laparotomy
Procedure: To establish long-term safety, the course of recovery of the reproductive system after fetal resorption was studied. Six plugged mice were injected with 30 mg/kg AGM-1470 on E1 (n=3) or E7 (n=3) and then anesthetized on E18 in a methoxyflurane (Pittman-Moore, Mandelein, Ill.) chamber so that a laparotomy could be performed. The uteri were inspected to confirm the presence of resorption cites. The incisions were closed with a running 3-0 ethelon™ black monofilament nylon suture (Ethicon, Somerville; N.J.). Animals were observed until fully recovered. After an additional six weeks the mice were remated to determine their ability to become inseminated and deliver a normal litter. […] Therefore, there is a functional recovery of the uterus after AGM-1470 treatment on E1 or E7.

inseminated mice = experiment: Gross morphology and hematoxylin/eosin histology of gravid uteri, embryos and ovaries; format: in vivo, mouse
Procedure: FIGS. 1A-1I show the gross morphology of gravid mouse uteri. Inseminated mice were treated with AGM-1470 30 mg/kg s.c. or saline on Embryonic day 1 (E1) or E7, and mice were sacrificed at E9, 13 or 18. FIG. 1A, 1B, and 1C show the normal pattern of growth of fetuses on E9, E13 and E18.
FIGS. 2A-2F show hematoxylin/eosin staining of mouse embryos on E9. Inseminated mice were treated with AGM-1470 […] s.c. or saline on E1 or E7, and mice were sacrificed at E9. Uteri were resected and stained with hematoxylin/eosin as described in the material and methods section. […] (P−placenta, D=decidua).
Gravid uteri and ovaries were resected enbloc, weighed, fixed and Carnoy's fixative, and embedded in paraffin according to standard histological techniques. Sections were cut at 6 to 10 micrometers and stained with hematoxylin and eosin. When AGM-1470 was injected on E14, fetuses were allowed to come to term.

inseminated C57BL/6 mice = format: in vivo, mouse
From the text: C57BL/6 male and female mice greater than seven weeks old were obtained from Takonic (Germantown, N.Y.). The mice were acclimated for at least five days prior to mating and housed in a twelve hour on and twelve hour off light schedule. The mice were mated in the evenings and vaginal plugs were checked for the next morning. Mating in mice is normally detected by the occurrence of vaginal plugs, which are formed by a mixture of the secretions of the vesicular and coagulating glands of the male and usually fill the vagina from cervix to vulva. The day of plugging was labeled Embryonic day 0 (E0). All animal studies were conducted according to the protocols approved by the Animal Ethics Committee of Children's Hospital. Plugged female mice were randomized and received either AGM-1470 30 mg/kg s.c. or saline on E1, 7, or 14. The dependence of female reproductive system on angiogenesis was examined by treating sexually mature inseminated and cycling mice with selective angiogenesis inhibitor AGM-1470.
Mice were sacrificed on either E6, 9, 13 or 18 (one day prior to term gestation). Fetal viability was assessed and statistical analysis was performed with a Fisher's Exact Test.

[3] = tested on: bFGF induced neovascularization; experiment: Mouse corneal micropocket model, bFGF pellet; format: in vivo; conditions: mouse cornea, n=10/group, p<0.001
Procedure: as §1

CO[C@@H]1[C@H](OC(=O)NC(=O)CCl)CC[C@]2(CO2)[C@H]1[C@@]1(C)O[C@@H]1CC=C(C)C [AGM-1470, O-chloroacetylcarbamoyl fumagillol]
activity relative to parent compound fumagillin (angiogenesis): 50 times
CD31 labeled vessels in heart and liver bud [1]: almost a complete loss of CD31 labeled vessels
capillary density of embryo (CD31) [1]: loss of capillary density; also recorded: diffuse decrease in capillary density
capillary density of yolk sac (CD31) [1]: decrease in density and intercapillary distance of capillaries; also recorded: decreased capillary density
inhibition of VEGF induced neovascularization [2]: 62%
litters after remating (plugged mice): normal litters in all mice
placental development (histology) (inseminated mice; 30 mg/kg on E1): failure of placental development
placental development (histology) (inseminated mice; 30 mg/kg on E7): inhibition of placental and fetal development; also recorded: decrease in nucleated red blood cells and labyrinth structure in the placenta
gross morphology of gravid uteri (inseminated mice; 30 mg/kg s.c. on E7): hemorrhage around the implantation sites by E13; also recorded: resorption by E18
fetal histology on E9 (inseminated mice; both treated groups (E1 or E7)): Fetal disorganization
embryo histology on E9 (inseminated mice; injected on E1): small, disorganized embryo
nucleated red blood cells in E9 embryos (inseminated mice; injected on E7): reduced nucleated red blood cells in the embryo; also recorded: marked decrease in nucleated red blood cells
histology of the ovaries (inseminated mice; single dose on E1 or E7, all time points): appeared normal
gross morphology of gravid uteri (inseminated mice; treated on E1, after E9): failure of further growth with resorption
toxicity to the pregnant mothers (inseminated C57BL/6 mice; 30 mg/kg single dose): no signs of toxicity
birth defects (inseminated C57BL/6 mice; drug given to pregnant mice during pregnancy): birth defects were not documented
fetal resorption on E18 (inseminated C57BL/6 mice; single dose 30 mg/kg s.c. on E1 (pre-implantation), n=69 embryos): 100%
fetal resorption on E18 (inseminated C57BL/6 mice; single dose 30 mg/kg s.c. on E7 (post-implantation), n=36): 100%
litters (inseminated C57BL/6 mice; single dose 30 mg/kg s.c. on E14, n=46): normal litters
inhibition of bFGF induced neovascularization [3]: 47%
